This is an account of results in US9925192B2, “Method for treating cancer” (Merck Sharp & Dohme Corp., priority 2014, dated 2018).

In one experiment the test system is H128 SCLC cells. Description: In vitro cell viability (Cell Titer Glo), 8 hours of compound treatment. The settings on record: Homo sapiens, read-out: % Viability Remaining (8 hr), mean. The class given is cell-based. As to the method: (§1) All cell lines were grown in exponential growth phase.
In another experiment the test system is H146 SCLC cells. The description is as above. The class given is cell-based. The settings on record: Homo sapiens, read-out: % Viability Remaining (8 hr), mean. As to the method:
as §1

The next experiment concerns H82 SCLC cells. The description is as above. Conditions: Homo sapiens, read-out: % Viability Remaining (8 hr), mean. Type of experiment: cell-based. As to the method: as §1
Another experiment deals with Su-DHL-4 DLBCL cells. The experiment is described as above. Conditions: Homo sapiens, read-out: % Viability Remaining (8 hr), mean. The class given is cell-based. As to the method: as §1
Another experiment concerns Su-DHL-8 DLBCL cells. The description is as above. Type of experiment: cell-based. The settings on record: Homo sapiens, read-out: % Viability Remaining (8 hr), mean. As to the method:
as §1

The test system of experiment [1] is NCI-H82 human Small Cell Lung Cancer (SCLC) xenograft. Description: NCI-H82 human Small Cell Lung Cancer xenograft model. The class given is in vivo, mouse. The settings on record: dinaciclib 40 mg/kg ip q4d, ABT-199 100 mg/kg po qd. As to the method: (§2) The cells were cultured in tissue culture flasks in a humidified incubator at 37° C., in an atmosphere of 5% CO2 and 95% air.
(§3) Body weight was measured at least twice weekly.
On the technique in general: Xenograft models place foreign cells or tissue in a host animal.

For experiment [2], the system named is SUDHL4 human Diffuse Large B-Cell Lymphoma (DLBCL) xenograft. The class given is in vivo. The settings on record: dinaciclib 40 mg/kg ip q4d, ABT-199 100 mg/kg po qd, dosing for eleven days, combination measured on day 18. How it is done: as §2, §3
The test system of experiment [3] is TOLEDO human Diffuse Large B-Cell Lymphoma (DLBCL) xenograft. Description: Toledo human DLBCL xenograft model. Conditions: dinaciclib 40 mg/kg ip q4d, ABT-199 100 mg/kg po qd, alone or combined.
Protocol: Eight week old female SCID beige mice (Fox Chase SCID® Beige) with body weights ranging from 18.0 to 22 grams were used for this study. Toledo tumor cells were grown to mid-log phase in RPMI-1640 medium containing 10% fetal bovine serum, 100 units/mL penicillin G, 100 μg/mL streptomycin sulfate, and 10 mM sodium pyruvate. The cells were cultured in tissue culture flasks in a humidified incubator at 37° C., in an atmosphere of 5% CO2 and 95% air. Mice were implanted subcutaneously in the right flank with 5×10e^6 tumor cells in 50% matrigel in a total volume of 0.1 ml. Twenty-eight days after inoculation, mice were randomized into groups when tumors reached an average tumor volume of ˜160 mm^3.
Dinaciclib, formulated in 20% hydroxypropyl beta-cyclodextrin (HPBCD), was dosed at 40 mg/kg intraperitoneal (ip) every four days (q4d). […] Both test agents were administered at 10 ml/kg.
Tumor volume (TV) was measured twice a week using calipers. Tumor volume was calculated by the elliptical formula: Tumor Volume=width2×length/2. Body weight was measured at least twice weekly. […] Statistical Analysis of Tumor Growth Inhibition (TGI) was analyzed by one-way ANOVA followed by Tukey's multiple comparison test.

Consider `CC1(C)CCC(CN2CCN(c3ccc(C(=O)NS(=O)(=O)c4ccc(NCC5CCOCC5)c([N+](=O)[O-])c4)c(Oc4cnc5[nH]ccc5c4)c3)CC2)=C(c2ccc(Cl)cc2)C1` [ABT-199, 4-(4-{[2-(4-chlorophenyl)-4,4-dimethylcyclohex-1-en-1-yl]methyl}piperazin-1-yl)-N-({3-nitro-4-[(tetrahydro-2H-pyran-4-ylmethyl)amino]phenyl}sulfonyl)-2-(1H-pyrrolo[2,3-b]pyridin-5-yloxy)benzamide], for which the viability (commonly a read-out of living cells in per cent, often relative to untreated cells) at 1 µM in the experiment with H128 SCLC cells (NCI-H128, 8 h) was determined as 95.4%; with H146 SCLC cells (NCI-H146, 8 h), 92.6%; with H82 SCLC cells (8 h) it was 111%; in the experiment with Su-DHL-4 DLBCL cells (SU-DHL-4, 8 h), 85.4%; in the experiment with Su-DHL-8 DLBCL cells (SU-DHL-8, 8 h), 99.4%. Further, the “Effect on tumor growth (single agents)” value in experiment [1] is reported as “no effect on tumor growth”. Further, the “Anti-tumor effect (tumor volume)” value in experiment [2] is given as “single agent activity”; in experiment [3], “provided anti-tumor effects”.

As to `CCc1cnn2c(NCc3ccc[n+]([O-])c3)cc(N3CCCC[C@H]3CCO)nc12` [dinaciclib, (S)-(−)-2-(1-{3-ethyl-7-[(1-oxy-pyridin-3-ylmethyl)amino]pyrazolo[1,5-a]pyrimidin-5-yl}piperidin-2-yl)ethanol], the viability at 0.1 µM is 114% in the experiment on H128 SCLC cells (NCI-H128, H128 SCLC, dinaciclib 0.1 uM, 8 hr); 118% in the experiment on H146 SCLC cells (NCI-H146, H146 SCLC, dinaciclib 0.1 uM, 8 hr); 64.7% in the experiment with H82 SCLC cells (H82 SCLC, dinaciclib 0.1 uM, 8 hr); 53.5% with Su-DHL-4 DLBCL cells (Su-DHL-4 DLBCL, dinaciclib 0.1 uM, 8 hr); 126% with Su-DHL-8 DLBCL cells (Su-DHL-8 DLBCL, dinaciclib 0.1 uM, 8 hr).
